Like-named read-outs stand apart in the source and are kept apart here.
Tests used:
Assay type in all cases: biochemical
[1] = target: T1, human 9-cis retinol dehydrogenase (9cRDH) (Homo sapiens, UniProt Q92781); experiment: Inhibition of recombinant human 9cRDH activity (9-cis-retinol oxidation, CHO cell homogenate, HPLC)
T1 sequence (Q92781 1-318): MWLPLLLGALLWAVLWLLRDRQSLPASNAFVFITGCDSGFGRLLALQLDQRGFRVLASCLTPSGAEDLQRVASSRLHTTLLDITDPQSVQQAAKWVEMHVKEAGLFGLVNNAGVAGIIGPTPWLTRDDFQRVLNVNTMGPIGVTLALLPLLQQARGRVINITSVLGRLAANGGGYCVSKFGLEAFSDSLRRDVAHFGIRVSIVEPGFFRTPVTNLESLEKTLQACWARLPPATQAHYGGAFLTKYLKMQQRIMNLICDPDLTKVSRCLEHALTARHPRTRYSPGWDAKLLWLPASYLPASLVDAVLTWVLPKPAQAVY

human 9cRDH = target: T2, human 9cRDH (Homo sapiens, UniProt Q92781); experiment: Hydroxysteroid oxidation/reduction by human 9cRDH (TLC); conditions: 37° C., 1.5 h; TLC detection limit approximately 3 pmol/min/mg protein
T2 sequence (Q92781 1-318): T1 sequence (Q92781 1-318)
Experimental: (§1) To investigate whether human or mouse 9cRDH will catalyze oxidations or reductions of 3α-hydroxy-, 11β-hydroxy- or 17β-hydroxysteroids, these steroids were incubated at 37° C. for 1.5 h in the assay media described above for assessing oxidation/reduction of 9-cis-retinol/9-cis-retinaldehyde. The Hepes NAD^+-containing assay buffer described above was employed to assess hydroxysteroid oxidation and to assess hydroxysteroid reduction the acetate buffer containing NADH (or NADPH) assay buffer (see above) was employed. Immediately following incubation, the steroids were extracted as described above for retinoids. The final hexane extract was evaporated to near dryness and this was spotted onto a silica high performance TLC plate (Whatman Inc., Clifton, N.J.) and developed in hexane/diethyl ether/acetic acid (70:30:1, v/v) or ethyl acetate/chloroform (25:75, v/v). Steroids were visualized by charring after treatment of the TLC plates with an areosol of 10% (v/v) H2SO4 in methanol.
(§2) Biswas and Russell (32) have reported that rat liver all-trans-retinol dehydrogenase type I also uses several 3α-hydroxy- and 17β-hydroxysteroids as substrates. Chai et al. (18) also reported that hydroxysteroids are substrates for mouse liver cis-retinol dehydrogenase. Since human 9cRDH is approximately 50% identical to the rat liver enzymes and shares approximately 63% homology to mouse liver cis-retinol dehydrogenase, next investigated was whether these steroids might also be substrates for 9cRDH. To test this possibility it was determined whether human or mouse 9cRDH would catalyze oxidation of 5α-androstan-3α, 17β-diol, androsterone, testosterone or dihydrotestosterone to corresponding ketone products. Also investigated was whether human and/or mouse 9cRDH could catalyze reduction of the corresponding ketones. […] It is estimate, based on the lower limits for hydroxysteroid detection by TLC, that it would be possible to detect rates of hydroxysteroid oxidation as low as approximately 3 pmol/min/mg protein. This rate of hydroxysteroid oxidation is at least 2-orders of magnitude lower than Vmax values reported by Biswas and Russell (32) and Chai et al. (18) for oxidation of hydroxysteroids in their studies of enzymes that are able to oxidize both retinol and hydroxysteroids.

mouse 9cRDH [2] = target: T3, mouse 9cRDH (Mus musculus, UniProt O55240); experiment: Hydroxysteroid oxidation/reduction by mouse 9cRDH (TLC); conditions: 37° C., 1.5 h; TLC detection limit approximately 3 pmol/min/mg protein
T3 sequence (O55240 1-318): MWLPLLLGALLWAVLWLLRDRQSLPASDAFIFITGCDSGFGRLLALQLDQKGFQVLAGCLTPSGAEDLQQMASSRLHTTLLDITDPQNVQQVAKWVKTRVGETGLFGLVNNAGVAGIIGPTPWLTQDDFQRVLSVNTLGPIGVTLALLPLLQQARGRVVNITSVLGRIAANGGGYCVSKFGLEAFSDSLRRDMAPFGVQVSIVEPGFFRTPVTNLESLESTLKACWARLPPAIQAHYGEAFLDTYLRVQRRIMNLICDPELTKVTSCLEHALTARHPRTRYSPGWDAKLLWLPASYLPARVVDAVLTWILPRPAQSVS
Experimental: as §1, §2

mouse 9cRDH [3] = target: T3, mouse 9cRDH; experiment: Inhibition of recombinant mouse 9cRDH activity (9-cis-retinol oxidation, CHO cell homogenate, HPLC)
mouse 9cRDH (m9cRDH) [4] = target: T4, mouse 9cRDH (m9cRDH) (Mus musculus, UniProt O55240); experiment: Retinaldehyde isomer reduction by recombinant mouse 9cRDH; conditions: substrate 10 μM, 15 min, 150–180 μg protein/assay, NADH, pH 5.0
T4 sequence (O55240 1-318): T3 sequence (O55240 1-318)
Experimental: (§3) Enzymatic Assays. Assays for human and mouse 9cRDH were carried out essentially as were described previously for human 9cRDH (19). For expression of mouse 9cRDH a cDNA clone obtained from a mouse liver cDNA library was employed (see below). Recombinant human or mouse 9cRDH expressed in CHO cells was incubated in an assay mixture containing 10 μM 9-cis-retinol (added in 0.02 mL ethanol) and 2 mM NAD in 10 mM Hepes, pH 8.0, containing 150 mM KCl, 1 mM EDTA, and 50 μg phosphotidyl choline for 15 min at 37° C. (final assay volume of 0.6 ml) with agitation. This assay mixture was used routinely to measure oxidation of 9-cis-retinol to 9-cis-retinaldehyde and in studies assessing oxidation of 11-cis-, 13-cis- and all-trans-retinol to their corresponding aldehydes. For some experiments, the ability of human or mouse 9cRDH to catalyze the reduction of 9-cis-, 11-cis-, 13-cis- or all-trans-retinaldehyde was assessed. To assess these reduction reactions, incubations were carried out in 100 mM sodium acetate, pH 5.0, containing 50 μg phosphotidyl choline and 2 mM NADH (or 2 mM NADPH) in a final volume of 0.6 ml for 15 min at 37° C.
(§4) Immediately following incubation of the assay, the assay mixture was denatured with an equal volume of absolute ethanol (0.6 ml), and the retinoids extracted into 2.5 ml of hexane. Following one backwash of the hexane extract with 0.5 ml of deionized water, the hexane was evaporated to dryness under a gentle stream of N2. The extracted retinoids were immediately redissolved in 120 μl of hexane and analyzed by normal phase HPLC as described below.

human 9cRDH (h9cRDH) [5] = target: T5, human 9cRDH (h9cRDH) (Homo sapiens, UniProt Q92781); experiment: Retinaldehyde isomer reduction by recombinant human 9cRDH; conditions: substrate 10 μM, 15 min, 150–180 μg protein/assay, NADH, pH 5.0
T5 sequence (Q92781 1-318): T1 sequence (Q92781 1-318)
Experimental: as §3, §4

mouse 9cRDH (m9cRDH) [6] = target: T4, mouse 9cRDH (m9cRDH); experiment: Retinol isomer oxidation by recombinant mouse 9cRDH; conditions: for m9cRDH specific activity, retinol oxidation: substrate 10 μM, 15 min, 150–180 μg protein/assay, NAD+
Experimental: as §3, §4

human 9cRDH (h9cRDH) [7] = target: T5, human 9cRDH (h9cRDH); experiment: Retinol isomer oxidation by recombinant human 9cRDH (substrate and cofactor specificity); conditions: for h9cRDH specific activity, retinol oxidation: substrate 10 μM, 15 min, 150–180 μg protein/assay, NAD+
Experimental: Enzymatic Assay of Retinol Dehydrogenase Activity. Transfected CHO cell pellets were homogenized in PBS at 4° C. using 50 strokes of a Dounce homogenizer For assay of retinol dehydrogenase activity, aliquots of unfractionated CHO cell homogenate were incubated with 10, μM retinol (either as the all-trans, 13-cis, or 9-cis isomer added in ethanol) and either 2 mM NAD+ or 2 mM NADP+ in 10 mM Hepes containing 150 mM KCl, 1 mM EDTA, and 10, μg/ml phosphotidyl choline at pH 8.0 and 37° C. for prechosen time intervals. The final assay volume was 0.6 ml. Assays were routinely carried out in amber glass tubes that had been flushed with N2 to shield the retinoids from both light and O2 All subsequent extractions and procedures were carried out in a manner that minimized exposure of the retinoids to light and O2.
Immediately following incubation, the assay mixture was denatured with an equal volume of absolute ethanol (0.6 ml), and the retinoids were extracted into 3 ml of HPLC grade hexane. Following one backwash of the hexane extract with 0.5 ml of deionized water, the hexane was evaporated to dryness under a gentle stream of N2, and the extracted retinoids were immediately redissolved in 120 μl of hexane and analyzed by normal phase HPLC (see below).
HPLC Procedures. Stereoisomers of both retinol and retinaldehyde were separated on a 4.6×250-mm Vydac 101HS54 silica column using hexane:n-propanol:1-octanol (98.9:1.0:0.1 v/v) flowing at 1.5 ml/min as the mobile phase. The running column was preceded by a silica guard column. Retinols and retinaldehydes were detected by UV absorbance at 350 nm. Retention times for all-trans-, 13-cis-, and 9-cis-retinols were established using purified compounds obtained as described above. Retention times for all-trans-, 13-cis-, and 9-cis-retinaldehyde were determined using commercial standards (Sigma). Quantities of each retinol and retinaldehyde isomer present in extracts were determined by comparisons of the integrated areas under the HPLC peaks with a standard curve constructed relating integrated peak area with known masses of each retinoid isomer. The concentrations of each retinoid isomer were determined by UV-visible spectrophotometry using published extinction coefficients for each retinol and retinaldehyde isomer (26).
as §3, §4

[8] = 10 μM steroid, equimolar to substrate, forward (retinol oxidation) or reverse (retinaldehyde reduction) direction

**Q.** Which “inhibition of human 9cRDH activity by hydroxysteroids” value [1] does the source give for `C[C@]12CCC(=O)C[C@@H]1CC[C@@H]1[C@@H]2CC[C@]2(C)[C@@H](O)CC[C@@H]12` [5α-androstan-17βol-3one] here?
**A.** The value was “none of these hydroxysteroids inhibited”.

**Q.** And the “catalysis by human 9cRDH of hydroxysteroid oxidation to ketone products (or reduction of the corresponding ketones)” value (human 9cRDH)?
**A.** The value was “Neither human nor mouse 9cRDH were found to catalyze”.

**Q.** What about the “catalysis by mouse 9cRDH of hydroxysteroid oxidation to ketone products (or reduction of the corresponding ketones)” value (mouse 9cRDH [2]) of the same compound?
**A.** Its value is “Neither human nor mouse 9cRDH were found to catalyze”.

**Q.** What about the “inhibition of mouse 9cRDH activity by hydroxysteroids” value (mouse 9cRDH [3]) of the same compound?
**A.** Its value is “none of these hydroxysteroids inhibited”.

**Q.** What does the source list for `C[C@]12CC[C@@H](O)C[C@@H]1CC[C@@H]1[C@@H]2CC[C@]2(C)[C@@H](O)CC[C@@H]12` [5α-androstane-3α, 17βdiol]?
**A.** inhibition of human 9cRDH activity by hydroxysteroids [1, 8]: none of these hydroxysteroids inhibited; catalysis by human 9cRDH of hydroxysteroid oxidation to ketone products (or reduction of the corresponding ketones) (human 9cRDH): Neither human nor mouse 9cRDH were found to catalyze; catalysis by mouse 9cRDH of hydroxysteroid oxidation to ketone products (or reduction of the corresponding ketones) (mouse 9cRDH [2]): Neither human nor mouse 9cRDH were found to catalyze; inhibition of mouse 9cRDH activity by hydroxysteroids (mouse 9cRDH [3]; [8]): none of these hydroxysteroids inhibited

**Q.** With `CC1=C(/C=C/C(C)=C\C=C\C(C)=C\C=O)C(C)(C)CCC1` [9-cis-retinaldehyde] as the compound, how does the “m9cRDH specific activity, retinaldehyde reduction” value (mouse 9cRDH (m9cRDH) [4]) read?
**A.** Its value is 420 pmol/min/mg protein.

**Q.** And the “h9cRDH specific activity, retinaldehyde reduction” value (human 9cRDH (h9cRDH) [5])?
**A.** Its value is 268 pmol/min/mg protein.

**Q.** With `CC1=C(/C=C/C(C)=C\C=C\C(C)=C\CO)C(C)(C)CCC1` [9-cis-retinol] as the compound, how does the “rate of oxidation by mouse enzyme as multiple of the rate of 11-cis-retinol oxidation” value (mouse 9cRDH (m9cRDH) [6]) read?
**A.** The value was 2 times.

**Q.** What about the “m9cRDH specific activity, retinol oxidation” value (mouse 9cRDH (m9cRDH) [6]) of the same compound?
**A.** The value was 328 pmol/min/mg protein.

**Q.** What about the “oxidation to the corresponding retinaldehyde by transfected CHO cell homogenate (in words)” value (human 9cRDH (h9cRDH) [7]; 2 mM NAD+) of the same compound?
**A.** The value was “avidly oxidized”.

**Q.** What about the “share of the added retinol oxidized to retinaldehyde by CHO cell homogenate” value (human 9cRDH (h9cRDH) [7]; in assay concentration 10 μM) of the same compound?
**A.** The value was “Over 60%”.

**Q.** And the “h9cRDH specific activity, retinol oxidation” value (human 9cRDH (h9cRDH) [7])?
**A.** The value was 367 pmol/min/mg protein.

**Q.** For `CC1=C(/C=C/C(C)=C/C=C\C(C)=C\C=O)C(C)(C)CCC1` [11-cis-retinaldehyde], which “m9cRDH specific activity, retinaldehyde reduction” value (mouse 9cRDH (m9cRDH) [4]) is on record?
**A.** The value was 506 pmol/min/mg protein.

**Q.** And the “h9cRDH specific activity, retinaldehyde reduction” value (human 9cRDH (h9cRDH) [5])?
**A.** Its value is 1220 pmol/min/mg protein.

**Q.** `CC1=C(/C=C/C(C)=C/C=C\C(C)=C\CO)C(C)(C)CCC1` [11-cis-retinol] was tested. Which “m9cRDH specific activity, retinol oxidation” value (mouse 9cRDH (m9cRDH) [6]) did it give?
**A.** The value was 152 pmol/min/mg protein.

**Q.** And the “h9cRDH specific activity, retinol oxidation” value (human 9cRDH (h9cRDH) [7])?
**A.** The value was 442 pmol/min/mg protein.
